# Molecular target: T1, factor IXa (Homo sapiens, UniProt P00740)
# T1 construct: Factor IX is a proenzyme; purchased Calbiochem (Merck KGaA) 233290
# Test: Factor IXa enzyme assay (inhibition of enzymatic activity of FIXa, substrate PEFA 3107)
# Assay type: biochemical
# Conditions: 277 nM factor IXa, pH 7.4, 15 min preincubation at room temperature, read at 405 nm
# Protocol: The prepared substances from the examples were tested for inhibition of the enzymatic activity of FIXa using the substrate PEFA 3107 (Pentapharm/Loxo; via S. Black GmbH, Baumstrasse 41, 47198 Duisburg, Germany; Pr. No. 095-20) and factor IXa (Calbiochem, Merck KGaA markets Calbiochem in Germany, Life Science & Analytics, 64293 Darmstadt; Pr. No. 233290). In this method, 28 μl of test buffer (50 mM α,α,α-tris(hydroxymethyl)methylamine (TRIS), 100 mM NaCl, 5 mM CaCl2, 0.1% bovine serum albumin, pH 7.4) and 10 μl of factor IXa (277 nM final concentration in the test batch) were added to 2 μl of 10 mM dimethyl sulfoxide solution of the respective test substance, and the mixture was incubated for 15 minutes at room temperature in a 96 half-well microtiter plate. The enzyme reaction was started by addition of 10 μl of substrate (1 mM stock solution in water). The time course of the reaction was monitored at 405 nm in a microtiter plate reader (SpectraMax plus 384; Molecular Devices) for 15 minutes. The IC50 was calculated from the averaged values (duplicate determination) of a dilution series of the test substance with the aid of the software Grafit 4 (Erithacus Software, UK). The inhibition constants (Ki) were calculated according to the Cheng Prusoff equation Ki=IC50/(1+(S/Km), where S=concentration of the test substrate in the test and Km=Michaelis-Menten constant.
# T1 sequence (P00740 227-461 limits assumed): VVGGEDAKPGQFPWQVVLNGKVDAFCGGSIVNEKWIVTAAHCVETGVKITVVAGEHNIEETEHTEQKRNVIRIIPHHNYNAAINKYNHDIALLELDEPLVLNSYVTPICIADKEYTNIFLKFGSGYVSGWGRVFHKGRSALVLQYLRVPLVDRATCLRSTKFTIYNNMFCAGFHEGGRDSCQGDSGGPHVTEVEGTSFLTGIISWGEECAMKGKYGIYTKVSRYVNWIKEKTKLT
# T1 sequence (P00740 47-191 partner limits assumed): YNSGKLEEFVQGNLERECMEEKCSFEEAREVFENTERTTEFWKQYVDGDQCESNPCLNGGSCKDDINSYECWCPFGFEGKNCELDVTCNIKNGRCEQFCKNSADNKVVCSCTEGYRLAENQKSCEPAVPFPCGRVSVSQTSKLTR
row,IC50,Compound
1,170 nM,"Cc1ccc(NC(=O)[C@H](O)[C@@H](O)C(=O)Nc2ccc(C(=N)N)cc2)cc1 [Example 5, (2R,3R)—N-(4-Carbamimidoylphenyl)-2,3-dihydroxy-N′-p-tolylsuccinamide; compound with trifluoroacetic acid]"
2,220 nM,"Cc1ccc(NC(=O)[C@H](O)[C@@H](O)C(=O)Nc2ccc3c(N)nccc3c2)cc1 [Example 1, (2R,3R)—N-(1-Aminoisoquinolin-6-yl)-2,3-dihydroxy-N′-p-tolyltartaramide; compound with trifluoroacetic acid]"
3,370 nM,"Nc1nc2ccc(NC(=O)[C@H](O)[C@@H](O)C(=O)Nc3ccc(Oc4ccccc4)cc3)cc2[nH]1 [Example 12, (2R,3R)—N-(2-amino-3H-benzimidazol-5-yl)-2,3-dihydroxy-N′-(4-phenoxyphenyl)-tartaramide]"
